Experimental data reported in ChEMBL document CHEMBL1759923, “Preparation, in vitro screening and molecular modelling of symmetrical bis-quinolinium cholinesterase inhibitors--implications for early myasthenia gravis treatment” (Bioorg Med Chem Lett, 2011).
The source made the active and inactive calls. The rule behind the calls is not given here.

Tests used:
[1] = target: T1, Acetylcholinesterase (Homo sapiens, UniProt P22303); assay: Inhibition of human erythrocyte recombinant AChE by modified Ellman's method
[2] = target: Cholinesterase (Homo sapiens, UniProt P06276); assay: Inhibition of human plasmatic BChE by modified Ellman's method; parameters: species or system Plasma
[3] = target: T1, Acetylcholinesterase; assay: Inhibition of human erythrocytes recombinant AChE assessed as dissociation constant for enzyme-inhibitor complex
[4] = target: T1, Acetylcholinesterase; assay: Inhibition of human erythrocytes recombinant AChE assessed as dissociation constant for enzyme-inhibitor-substrate complex
[5] = target: T1, Acetylcholinesterase; assay: Inhibition of human erythrocyte recombinant AChE at 0.1 mM to […] by modified Ellman's method

Sequence of Cholinesterase (P06276 whole entry): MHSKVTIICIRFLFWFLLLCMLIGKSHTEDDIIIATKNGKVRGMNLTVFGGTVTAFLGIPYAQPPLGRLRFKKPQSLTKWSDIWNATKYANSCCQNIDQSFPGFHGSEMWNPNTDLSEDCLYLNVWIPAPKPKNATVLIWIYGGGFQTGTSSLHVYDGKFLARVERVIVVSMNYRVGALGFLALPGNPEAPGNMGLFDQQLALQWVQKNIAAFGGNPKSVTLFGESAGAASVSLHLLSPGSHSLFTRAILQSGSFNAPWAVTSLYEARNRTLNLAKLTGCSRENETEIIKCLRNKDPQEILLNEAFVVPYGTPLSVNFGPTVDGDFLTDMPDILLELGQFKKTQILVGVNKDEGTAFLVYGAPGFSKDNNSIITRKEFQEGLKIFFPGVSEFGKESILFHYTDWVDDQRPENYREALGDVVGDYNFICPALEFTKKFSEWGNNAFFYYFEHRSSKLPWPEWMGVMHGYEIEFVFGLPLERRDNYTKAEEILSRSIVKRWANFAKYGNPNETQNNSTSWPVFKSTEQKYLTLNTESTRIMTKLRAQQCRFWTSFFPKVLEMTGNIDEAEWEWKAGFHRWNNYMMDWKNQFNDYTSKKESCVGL
T1 sequence (P22303 whole entry): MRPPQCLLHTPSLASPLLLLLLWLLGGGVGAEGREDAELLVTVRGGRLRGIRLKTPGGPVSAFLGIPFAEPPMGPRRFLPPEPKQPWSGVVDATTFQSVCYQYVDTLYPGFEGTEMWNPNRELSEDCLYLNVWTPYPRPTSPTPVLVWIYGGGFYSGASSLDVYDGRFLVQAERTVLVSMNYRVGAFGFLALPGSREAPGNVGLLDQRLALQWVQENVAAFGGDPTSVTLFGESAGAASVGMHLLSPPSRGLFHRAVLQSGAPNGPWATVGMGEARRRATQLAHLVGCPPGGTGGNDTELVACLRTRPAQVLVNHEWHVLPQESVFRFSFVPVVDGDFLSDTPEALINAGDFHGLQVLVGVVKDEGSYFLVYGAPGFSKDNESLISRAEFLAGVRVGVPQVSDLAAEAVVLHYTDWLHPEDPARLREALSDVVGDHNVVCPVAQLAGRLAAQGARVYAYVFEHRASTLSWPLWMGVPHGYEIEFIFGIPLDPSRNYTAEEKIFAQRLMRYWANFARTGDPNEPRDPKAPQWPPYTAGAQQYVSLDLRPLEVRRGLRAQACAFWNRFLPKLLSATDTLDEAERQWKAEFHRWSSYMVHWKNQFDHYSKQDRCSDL

Compound | IC50 [1] [µM] | IC50 [2] [µM] | Ki [3] [nM] | Ki [4] [µM] | inhibition [5]
c1ccc2c(c1)ccc[n+]2COC[n+]1cccc2ccccc21 | 418 | 871 | – | – | –
C(=C/C[n+]1cccc2ccccc21)/C[n+]1cccc2ccccc21 | 2 | 0.8 | – | – | –
c1ccc2c(c1)ccc[n+]2CCCCCCCC[n+]1cccc2ccccc21 | 0.08 | 0.7 | – | – | –
c1ccc2c(c1)ccc[n+]2CCOCC[n+]1cccc2ccccc21 | 35 | 48 | – | – | –
c1cc(C[n+]2cccc3ccccc32)cc(C[n+]2cccc3ccccc32)c1 | 40 | 20 | – | – | –
c1ccc2c(c1)ccc[n+]2CCCCCCCCCCCC[n+]1cccc2ccccc21 | 0.02 | 0.4 | – | – | –
c1ccc2c(c1)ccc[n+]2CCCCCCCCC[n+]1cccc2ccccc21 | 0.08 | 0.6 | – | – | –
c1ccc2c(c1)ccc[n+]2CCC[n+]1cccc2ccccc21 | 9 | 13 | – | – | –
c1ccc2c(c1)ccc[n+]2Cc1ccc2ccc(C[n+]3cccc4ccccc43)cc2c1 | 0.8 | 0.2 | 2300 | 8.2 | –
C(=C\C[n+]1cccc2ccccc21)/C[n+]1cccc2ccccc21 | 6 | 308 | – | – | –
c1ccc2c(c1)ccc[n+]2CCCCCCC[n+]1cccc2ccccc21 | 0.09 | 0.4 | – | – | –
c1ccc2c(c1)ccc[n+]2CCCC[n+]1cccc2ccccc21 | 38 | 32 | – | – | –
C[N+](C)(CCNC(=O)C(=O)NCC[N+](C)(C)Cc1ccccc1Cl)Cc1ccccc1Cl [AMBENONIUM DICHLORIDE] | – | 7 | – | – | –
c1ccc(C[n+]2cccc3ccccc32)c(C[n+]2cccc3ccccc32)c1 | 35 | 6 | – | – | –
c1ccc2c(c1)ccc[n+]2CCCCCC[n+]1cccc2ccccc21 | 25 | 5 | – | – | –
c1ccc2c(c1)ccc[n+]2CCCCCCCCCCC[n+]1cccc2ccccc21 | 0.01 | 0.5 | – | – | –
c1ccc2c(c1)ccc[n+]2Cc1ccc(C[n+]2cccc3ccccc32)cc1 | – | – | – | – | inactive
c1ccc2c(c1)ccc[n+]2CCCCC[n+]1cccc2ccccc21 | 4 | 34 | – | – | –
